{
  "source": "paper PMC9232612",
  "about": "“A phase 1b randomised controlled trial of a glucagon-like peptide-1 and glucagon receptor dual agonist IBI362 (LY3305677) in Chinese patients with type 2 diabetes” (Nature Communications, 2022)",
  "origin": "cited, not measured here",
  "key": {"[1]": {"test_system": "patients with T2D", "settings": "daily-dose, Japanese patients with T2D; cited from earlier work", "from_the_text": "Several GLP-1 and glucagon dual agonists have shown either glycaemic control or weight loss benefit in various settings. […] SAR425899, a […] GLP-1 and glucagon receptor dual agonist, achieved placebo-adjusted mean HbA1c level reductions up to 0.75% in patients with overweight or obesity and T2D[11]."}, "[2]": {"settings": "phase 2a, after 49 days of drug exposure; ref Parker VER et al. JCEM 2021;105(3):803-20; cited from earlier work", "experimental": "page 3: doses of IBI362 (4.5 and 6 mg). It would be helpful to provide the time course of the GI adverse events to ascertain whether they occurred during the up-titration phase and whether the symptoms persisted during the 12 weeks. Only one participant in the IBI362 4.5 mg cohort withdrew from the study due to decreased appetite. The cardiovascular safety profile of IBI362 reported in this manuscript raised some safety concerns and will be addressed in greater detail herein. Cardiovascular disorders were reported in 5 participants receiving IBI362 compared with one in each of the placebo and ..."}},
  "data": [
    {"substance": "Cotadutide", "values": [
      {"measurement": "reduction in body weight from baseline to day 50 (up to)", "setting": "[1]", "value": "up to 3.3%"},
      {"measurement": "mean change in diastolic BP", "setting": "[2]", "value": "+1.16 mm Hg"},
      {"measurement": "mean change in systolic BP", "setting": "[2]", "value": -2.8, "unit": "mm Hg"},
      {"measurement": "mean increase in heart rate", "setting": "[2]", "value": "+7.1 BPM"}
    ]}
  ]
}
